14 compounds from patent US8962656B2, “CCR2 antagonists” (Boehringer Ingelheim International GmbH, priority 2010, dated 2015) can be followed below.

The target of this experiment is T1, CCR2 (Homo sapiens, UniProt P41597).
T1 construct: Membranes were prepared from THP-1 cells; endogenous in cells; host or cells: THP-1 (human acute monocytic leukaemia cells), membrane preparation
T1 sequence (P41597 whole entry): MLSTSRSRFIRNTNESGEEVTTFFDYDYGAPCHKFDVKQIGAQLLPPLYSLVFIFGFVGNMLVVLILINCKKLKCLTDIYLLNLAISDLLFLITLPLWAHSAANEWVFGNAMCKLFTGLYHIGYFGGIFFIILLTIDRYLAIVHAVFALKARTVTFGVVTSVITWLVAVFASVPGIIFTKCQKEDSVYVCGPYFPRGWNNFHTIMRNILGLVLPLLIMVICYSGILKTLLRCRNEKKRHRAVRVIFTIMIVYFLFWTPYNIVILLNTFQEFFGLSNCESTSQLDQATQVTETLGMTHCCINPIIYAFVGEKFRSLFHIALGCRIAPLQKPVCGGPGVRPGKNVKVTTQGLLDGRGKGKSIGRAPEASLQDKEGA
The experiment in a line: CCR2 receptor membrane binding assay ([125I]MCP-1, THP-1 membranes, SPA beads). The settings on record: THP-1 cell membranes, [125I]MCP-1 displacement, bound radioactivity after 8 h; read-out: hKi. How it is done:
The above exemplary substances have been tested for binding to CCR2 using a binding assay as outlined herein below:
THP-1 cells (human acute monocytic leukaemia cells) were cultured under standardized conditions at 37° C. and 5% CO2 in a humidified incubator. THP-1 cells were cultivated in RPMI 1640 medium (Gibco 21875) containing 1% MEM-NEAA (Gibco 11140) 2 mM L-glutamine, 1.5 g/L sodium bicarbonate, 4.5 g/L glucose, 10 mM HEPES and 1.0 mM sodium pyruvate, 90%; 10% fetal calf serum (FCS Gibco 10500-064). Membranes were prepared from THP-1 cells. THP-1 cells were centrifuged at 300×g at 4° C. for 10 min. The cell pellet was resuspendet in Phosphate Buffer Saline (PBS, including 10 μM Pefabloc and a protease inhibitor mix ‘complete’, Boehringer Mannheim (1 tablet/50 ml)), to a concentration of […]. The membrane preparation was performed by disrupting the cells by nitrogen […] (at 50 bar, for 1 h) in a “Nitrogen Bombe” (Parr Instrument). Cell debris was removed by centrifugation (800×g at 4° C., 1 min). The supernatant was centrifuged at 80000×g, 4° C. for 30 min to sediment the cell membranes. Usually 50 mg of protein (Bradford assay) were yielded from 1×10E9 cells. The membranes were resuspendet in 25 mM HEPES, 25 mM MgCl2, 1 mM CaCl2, 10% Glycerine for storage in aliquots at −80° C. in 25 mM HEPES, 25 mM MgCl2, 1 mM CaCl2, 10% Glycerine and stored at −80° C.
Perkin Elmer NEX 332 Jod 125 MCP-1, Stock: 2200 Ci/mmol solved in 2000 μl assay buffer, stored at −20° C. THP-1 membrane were adjusted with 25 mM HEPES, pH 7.2; 5 mM MgCl2; 0.5 mM CaCl2; 0.2% BSA assay buffer to a concentration of 2.5 μg/15 Amersham Biosciences PVT-WGA Beads (RPNQ0001) were adjusted with assay buffer to a concentration of 0.24 mg/30 μl. For preparation of the membrane-bead-suspension membranes and beads were incubated for 30 min at RT under rotation (60 rpm) with a ratio of 1:2. Test compounds dissolved in 100% DMSO to a concentration of 10 mM and are further diluted with 100% DMSO to 1 mM. All additional compound dilutions were obtained with assay buffer, final 1% DMSO. Compounds, membrane-bead-suspension and [125I]MCP-1 (ca. 25000 cpm/10 μl) were incubated. Bound radioactivity was determined by scintillation counter after 8 h. Determination of affinity of test compounds (dissociation constant hKi) is calculated by iterative fitting of experimental data using the “easy sys” program, which is based on law of mass action (Schittkowski K. (1994), Numerische Mathematik, Vol. 68, 129-142).
Turning to `Cc1c(NCc2ccc(C(C)(C)C)cc2)cncc1C(=O)N1CCC(N2CCC(N(C)S(C)(=O)=O)CC2)CC1` [Example 1], the Ki came out at 594 nM.

Regarding `Cc1c(NC[C@H]2CCC[C@@H](c3ccccc3)C2)cncc1C(=O)N1CCC(N2CCC(N(C)S(C)(=O)=O)CC2)CC1` [Example 2], the Ki is 42 nM.

Consider `CO[C@@H]1COCC[C@@H]1NC1CCN(C(=O)c2cncc(NC[C@H]3CCC[C@@H](c4ccc(C)cc4)O3)c2C)CC1` [Example 3], for which the Ki was 6 nM.

Take `CO[C@H]1COCC[C@H]1NC1CCN(C(=O)c2cncc(NC[C@H]3CCC[C@@H](c4ccc(OC(F)(F)F)cc4)O3)c2C)CC1` [Example 4]: the Ki is 2 nM.

With `CO[C@@H]1COCC[C@@H]1NC1CCN(C(=O)c2cncc(NC[C@H]3CCC[C@@H](c4ccc(OC(F)(F)F)cc4)O3)c2C)CC1` [Example 5], the Ki amounted to 1 nM.

For the compound `CO[C@H]1COCC[C@H]1NC1CCN(C(=O)c2cncc(NC[C@H]3CCC[C@@H](c4ccc(C)cc4)O3)c2C)CC1` [Example 6], the Ki was 21 nM.

In the case of `CO[C@@H]1COCC[C@@H]1NC1CCN(C(=O)c2cncc(Nc3ccc(Cl)c(Cl)c3)c2C)CC1` [Example 6a], the Ki came to 18 nM.

As for `CO[C@H]1COCC[C@H]1NC1CCN(C(=O)c2cncc(Nc3ccc(Cl)c(Cl)c3)c2C)CC1` [Example 6b], the Ki was 85 nM.

Take `CO[C@@H]1COCC[C@@H]1NC1CCN(C(=O)c2cncc(NCc3ccc(Cl)c(F)c3)c2C)CC1` [Example 6c]: the Ki is 133 nM.

For the compound `CO[C@@H]1COCC[C@@H]1NC1CCN(C(=O)c2cncc(NCc3ccc(C(F)(F)F)c(Cl)c3)c2C)CC1` [Example 6d], the Ki was determined as 72 nM.

In the case of `CO[C@H]1COCC[C@H]1NC1CCN(C(=O)c2cncc(NC[C@H]3CCC[C@@H](c4ccc(C(F)(F)F)cc4)O3)c2)CC1` [Example 7], the Ki was found to be 40 nM.

In the case of `O=C(c1cncc(NC[C@H]2CCC[C@@H](c3ccc(C(F)(F)F)cc3)O2)c1)N1CCC(NC2CCOCC2F)CC1` (some centres unmarked) [Example 8], the Ki was 100 nM.

On to `CO[C@@H]1COCC[C@@H]1NC1CCN(C(=O)c2cncc(NC[C@H]3CCC[C@@H](c4ccc(C(F)(F)F)cc4)O3)c2)CC1` [Example 9], for which the Ki stood at 27 nM.

With `CO[C@@H]1COCC[C@@H]1NC1CCN(C(=O)c2cncc(NC[C@H]3CCC[C@@H](c4ccc(C)cc4)O3)c2)CC1` [Example 10], the Ki came out at 107 nM.
